The source of these data is PMC7822874, “Chemoprotective antimalarials identified through quantitative high-throughput screening of Plasmodium blood and liver stage parasites” (Scientific Reports, 2021).

Assay [1] has as its system luciferase-expressing P. berghei liver stage parasites in HepG2 cells. Kind of assay: Inhibition of liver-stage development assay (ILSDA), Method 2 (WRAIR, 96-well). The note with it: for Activity direction (Decrease / Inactive): P. berghei liver stage; for Max Resp (signal direction of the dose response): Decrease = decreasing P. berghei viability with dose, Increase = increasing signal, Inactive = no dose response. Format: cell-based, Plasmodium berghei.

Assay [2] relates to Plasmodium falciparum Dd2 asexual blood stage parasites. Kind of assay: microbe, parasite or virus in culture. Set-up: species or system Plasmodium falciparum Dd2 in human erythrocytes; single determination (one 11-point concentration-response curve). Conditions: Plasmodium falciparum, DD2, Erythrocyte, 72 h; read-out: AC50.
In assay [3] the test system is P. berghei-ANKA-GFP-LucCON liver stage parasites in HepG2-A16-CD81EGFP cells. Kind of assay: P. berghei liver stage Pb-Luc assay, Method 1 (UCSD, 1536-well). It is filed as cell-based, Plasmodium berghei. The note with it: Method 1; for Max Resp (signal direction of the dose response): Decrease = decreasing P. berghei viability with dose, Increase = increasing signal, Inactive = no dose response.

The mark [4] stands for this setting: Plasmodium berghei, HepG2, Method 2, Hill fit, 50% of maximum activity response, read-out: AC50.
The mark [5] stands for this setting: Plasmodium berghei, HepG2, Method 2, log10 of molar AC50 from Hill fit, read-out: Log AC50 (converted).
The mark [6] stands for this setting: Hill fit, 50% of maximum activity response, read-out: AC50.
[7] abbreviates: log10 of molar AC50 from Hill fit.
Setting [8] is: Plasmodium berghei, Hill fit, 50% of maximum activity response, read-out: AC50.
Setting [9] is: Plasmodium berghei, log10 of molar AC50 from Hill fit, read-out: Log AC50 (converted).
[10] abbreviates: Plasmodium berghei, HepG2, P. berghei liver stage, Method 2, dose response, read-out: AC50.
The mark [11] stands for this setting: Plasmodium berghei, HepG2, P. berghei liver stage, Method 2, dose response, read-out: Log AC50 (converted).

Read-outs that look alike come from different tables or passages of the source.

As usually defined, the AC50 is the concentration at which the activity in the assay is half-maximal. Consider `Clc1cnccc1CN1CC(CNc2ccccc2)C2(C1)CN(c1ccccc1)C2` (stereo not shown) [NCGC00416018-01], for which, in assay [1] (Method 2, dose response), the “Activity direction (Decrease / Inactive)” value is “Inactive”. Also, the AC50 in assay [2] was determined as 13700 nM.

Regarding `Cc1ccc2[nH]c(-c3ccccc3)cc(=O)c2c1` [MLS000112473-01], the “Max Resp (signal direction of the dose response)” value (shortened to “Max Resp”) in assay [1] (Method 2) was “Decrease”. The AC50 was 5620 nM in assay [1] (setting [4]), 5620 nM in assay [1] (setting [5]) and 4730 nM in assay [2].

In the case of `COc1cccc(NC(=O)c2cccc3c(=O)c4c([nH]c23)CCCC4)c1` [NCGC00119838-01], the “Max Resp” value in assay [3] is recorded as “Inactive”; in assay [1] (Method 2), “Increase”. For the same compound, the AC50 in assay [2] came out at 2990 nM.

For `COc1ccc2nc(C)cc(Nc3ccc(Cl)c(Cl)c3)c2c1` [NCGC00098192-01], the “Max Resp” value is listed as “Inactive” in assay [3] and “Decrease” in assay [1] (Method 2). Moreover, the figures for the AC50 in assay [1] (setting [4]), in assay [1] (setting [5]) and in assay [2] were 398 nM, 398 nM and 2660 nM, respectively.

Take `CCCCCCCc1c(C)[nH]c(N2CCOCC2)nc1=O` [MLS000531187-01]: in assay [1] (Method 2), the “Max Resp” value is given as “Decrease”. For the same compound, the AC50 is 5620 nM in assay [1] (setting [4]), 5620 nM in assay [1] (setting [5]) and 5310 nM in assay [2].

For the compound `COc1ccc(-n2nc(C)c([C@@H]3C=C[C@@H](NCc4ccc(F)cc4)C3)c2C)cc1` [NCGC00421412-01], the “Max Resp” value in assay [3] is given as “Decrease”. Also, the AC50 in assay [3] (setting [6]) is 1780 nM; in assay [3] (setting [8]), 1580 nM; in assay [3] (setting [9]) it was 1580 nM; in assay [1] (setting [10]) it was 3980 nM; in assay [1] (setting [11]) it was 3980 nM; in assay [2], 1370 nM. The “Log AC50 (M)” value in assay [3] (setting [7]) is listed as -5.750 M. Moreover, the “Activity direction (Decrease / Inactive)” value in assay [1] (Method 2, dose response) is on record as “Decrease”.

Take `Cc1cccc(N2CCN(c3nc4ccccc4c4nnc(C)n34)CC2)c1C` [NCGC00107423-01]: the entries for the “Max Resp” value in assay [3] and in assay [1] (Method 2) were “Inactive” and “Decrease”, respectively. Besides, the AC50 was 89 nM in assay [1] (setting [4]), 89.1 nM in assay [1] (setting [5]) and 5310 nM in assay [2].

Regarding `CCC(CC)c1cc([C@H]2CN3CC[C@H]2C[C@@H]3CNC(C)=O)nc(-c2ccncc2)n1` [NCGC00394634-01], the “Max Resp” value in assay [3] and in assay [1] (Method 2) was “Decrease” in each case. Also, the AC50 in assay [1] (setting [4]) was 355 nM; in assay [1] (setting [5]), 355 nM; in assay [2], 15300 nM.

For the compound `Cc1cccc(N(C)c2nc3ccccc3c3nnc(C)n23)c1` [NCGC00126108-01], the “Max Resp” value in assay [3] and in assay [1] (Method 2) was “Decrease” in each case. The AC50 is 316 nM in assay [3] (setting [8]); 316 nM in assay [3] (setting [9]); 447 nM in assay [1] (Method 2, Hill fit, 50% of maximum activity response, read-out: AC50); 1060 nM in assay [2]. Besides, the “Log AC50 (M)” value in assay [1] (Method 2, log10 of molar AC50 from Hill fit) is given as -6.350 M.

With `N#C/C(=C\c1ccc(Sc2ccc(Cl)cc2)o1)c1nc2ccccc2[nH]1` [MLS000579372-01], the “Max Resp” value in assay [1] (Method 2) is “Decrease”. Further, the AC50 in assay [1] (setting [4]) is 501 nM; in assay [1] (setting [5]), 501 nM; in assay [2], 2990 nM.

Regarding `CCC(CC)c1cc([C@H]2CN3CC[C@H]2C[C@@H]3CNC(=O)Cc2cccs2)nc(-c2ccncc2)n1` [NCGC00400345-01], the “Max Resp” value in assay [3] and in assay [1] (Method 2) was “Decrease” each time. The AC50 in assay [3] (setting [8]) was 5620 nM; in assay [3] (setting [9]) it was 5620 nM; in assay [1] (setting [4]), 251 nM; in assay [1] (setting [5]) it was 251 nM; in assay [2], 2990 nM.

Consider `COc1ccc(-n2nc(C)c([C@@H]3C=C[C@@H](NCc4ccc(N(C)C)cc4)C3)c2C)cc1` [NCGC00394616-01], for which the “Max Resp” value in assay [3] and in assay [1] (Method 2) was “Decrease” each time. Further, the AC50 in assay [3] (setting [6]) was 1580 nM; in assay [3] (setting [8]), 1410 nM; in assay [3] (setting [9]), 1410 nM; in assay [1] (setting [4]), 2820 nM; in assay [1] (setting [5]), 2820 nM; in assay [2] it was 4330 nM. In addition, the “Log AC50 (M)” value in assay [3] (setting [7]) is recorded as -5.800 M.

For the compound `COc1cc(/C=C(\C#N)c2nc3ccccc3[nH]2)ccc1OCc1ccc(F)cc1` [NCGC00102606-01], the “Max Resp” value in assay [3] and in assay [1] (Method 2) was “Decrease” throughout. Moreover, the AC50 in assay [3] (setting [8]) was 1410 nM; in assay [3] (setting [9]), 1410 nM; in assay [1] (setting [4]), 794 nM; in assay [1] (setting [5]), 794 nM; in assay [2], 5310 nM.

Regarding `CCOC(=O)c1[nH]c(C)c(CCC(=O)N2CCN(c3cccc(C)c3C)CC2)c1C` [NCGC00134568-01], the “Max Resp” value is reported as “Inactive” in assay [3] and “Decrease” in assay [1] (Method 2). Also, the values for the AC50 in assay [1] (setting [4]), in assay [1] (setting [5]) and in assay [2] were 562 nM, 562 nM and 1330 nM, respectively.

With `Oc1ccccc1CN1CC(CNc2cccnc2)C2(C1)CN(c1ccccc1)C2` (stereo not shown) [NCGC00415924-01], in assay [1] (Method 2, dose response), the “Activity direction (Decrease / Inactive)” value is recorded as “Inactive”. Further, the AC50 in assay [2] worked out at 10900 nM.

Take `Cc1nc2c(c(N3CCCC(COc4cccc(F)c4)C3)n1)CCNCC2` (stereo not shown) [NCGC00440030-01]: in assay [1] (Method 2, dose response), the “Activity direction (Decrease / Inactive)” value is “Inactive”. The AC50 in assay [2] was 8410 nM.

Regarding `CC(C)c1ccc(CN2CC(CNc3cccnc3)C3(C2)CN(c2ccccc2)C3)cc1` (stereo not shown) [NCGC00415809-01], the “Activity direction (Decrease / Inactive)” value in assay [1] (Method 2, dose response) was “Inactive”. In addition, the AC50 in assay [2] is 4850 nM.

In the case of `CCOC(=O)c1[nH]c(C)c(CCC(=O)N2CCN(c3cc(Cl)ccc3C)CC2)c1C` [NCGC00134588-01], the “Max Resp” value in assay [3] is recorded as “Inactive”; in assay [1] (Method 2) it was “Decrease”. The AC50 was 708 nM in assay [1] (setting [4]), 708 nM in assay [1] (setting [5]) and 1190 nM in assay [2].

Take `COc1ccc(-c2ccc3ncc(Nc4ccncc4)n3n2)cc1OC` [NCGC00412536-01]: the AC50 in assay [3] (setting [8]) is 2240 nM; in assay [3] (setting [9]), 2240 nM; in assay [2], 4850 nM. Besides, the “Max Resp” value in assay [1] (Method 2) was “Inactive”.

As to `O=[S+]([O-])(NCC1CN(Cc2ccc(O)cc2)CC12CN(c1ccccc1)C2)c1ccccc1` (stereo not shown) [NCGC00415939-01], the “Activity direction (Decrease / Inactive)” value in assay [1] (Method 2, dose response) is “Inactive”. Besides, the AC50 in assay [2] was 6680 nM.

As for `CC1CCc2cc(F)ccc2N1C(=O)CSc1nnc2c(n1)[nH]c1ccccc12` (stereo not shown) [MLS000557140-01], the “Max Resp” value in assay [1] (Method 2) is “Decrease”. Moreover, the AC50 is 5620 nM in assay [1] (setting [4]), 5620 nM in assay [1] (setting [5]) and 7500 nM in assay [2].

`CC(C)CCN1CC(CN[S+](=O)([O-])c2ccccc2)C2(C1)CN(c1ccccc1)C2` (stereo not shown) [NCGC00415920-01]: the “Activity direction (Decrease / Inactive)” value in assay [1] (Method 2, dose response) is recorded as “Decrease”. For the same compound, the AC50 in assay [1] (setting [10]) and in assay [1] (setting [11]) was 2820 nM throughout.

On to `Cc1ccc(C)c(NC2=C(c3ccc(C(F)(F)F)cc3)C(=O)c3ccccc32)c1` [NCGC00107302], for which the “Max Resp” value in assay [1] (Method 2) was “Decrease”. Besides, the AC50 in assay [1] (setting [4]) and in assay [1] (setting [5]) was 398 nM in each case.

Take `O=c1[nH]c(N2CCOCC2)nc2c1CCN(Cc1cc(Cl)ccc1F)CC2` [NCGC00440651]: the “Activity direction (Decrease / Inactive)” value in assay [1] (Method 2, dose response) was “Decrease”. Besides, the AC50 in assay [1] (setting [10]) and in assay [1] (setting [11]) was 200 nM throughout.
